Legend:
[1] = molecular target: T1, wild-type EZH2 (PRC2 enzyme) (Homo sapiens, UniProt Q15910); assay: PRC2 enzyme assay on peptide substrate, wild-type EZH2; assay type: biochemical; conditions: wild-type PRC2 enzyme 4 nM, H3K27me0 peptide, 3H-SAM Flashplate; read-out: WT EZH2 IC50
T1 construct: made in house; host or cells: Spodoptera frugiperda (sf9) cells, baculovirus
Excerpt: (§1) General Materials. S-adenosylmethionine (SAM), S-adenosylhomocyteine (SAH), bicine, KCl, Tween20, dimethylsulfoxide (DMSO) and bovine skin gelatin (BSG) were purchased from Sigma-Aldrich at the highest level of purity possible. Dithiothreitol (DTT) was purchased from EMD. ^3H-SAM was purchased from American Radiolabeled Chemicals with a specific activity of 80 Ci/mmol. 384-well streptavidin Flashplates were purchased from PerkinElmer.
(§2) Peptides representative of human histone H3 residues 21-44 containing either an unmodified lysine 27 (H3K27me0) or dimethylated lysine 27 (H3K27me2) were synthesized with a C-terminal G(K-biotin) linker-affinity tag motif and a C-terminal amide cap by 21st Century Biochemicals. […] The sequences are listed below.
(§3) Human PRC2 enzymes were purified as 4-component enzyme complexes co-expressed in Spodoptera frugiperda (sf9) cells using a baculovirus expression system. […] The EED subunit contained an N-terminal FLAG tag that was used to purify the entire 4-component complex from sf9 cell lysates.
(§4) The assays were all performed in a buffer consisting of 20 mM bicine (pH=7.6), 0.5 mM DTT, 0.005% BSG and 0.002% Tween20, prepared on the day of use. Compounds in 100% DMSO (1 μL) were spotted into polypropylene 384-well V-bottom plates (Greiner) using a Platemate 2×3 outfitted with a 384-channel pipet head (Thermo). DMSO (1 μL) was added to columns 11, 12, 23, 24, rows A-H for the maximum signal control, and SAH, a known product and inhibitor of PRC2 (1 μL) was added to columns 11,12, 23, 24, rows I-P for the minimum signal control. A cocktail (40 μL) containing the wild-type PRC2 enzyme and H3K27me0 peptide or any of the Y641 mutant enzymes and H3K27me2 peptide was added by Multidrop Combi (Thermo). The compounds were allowed to incubate with PRC2 for 30 min at 25° C., then a cocktail (10 μL) containing a mixture of non-radioactive and ^3H-SAM was added to initiate the reaction (final volume=51 μL). In all cases, the final concentrations were as follows: wild-type or mutant PRC2 enzyme was 4 nM, SAH in the minimum signal control wells was 1 mM and the DMSO concentration was 1%. The assays were stopped by the addition of non-radioactive SAM (10 μL) to a final concentration of 600 μM, which dilutes the ^3H-SAM to a level where its incorporation into the peptide substrate is no longer detectable. 50 μL of the reaction in the 384-well polypropylene plate was then transferred to a 384-well Flashplate and the biotinylated peptides were allowed to bind to the streptavidin surface for at least 1 h before being washed three times with 0.1% Tween20 in a Biotek ELx405 plate washer. The plates were then read in a PerkinElmer TopCount platereader to measure the quantity of ^3H-labeled peptide bound to the Flashplate surface, measured as disintegrations per minute (dpm) or alternatively, referred to as counts per minute (cpm).
(§5) Where dpm=disintegrations per minute, cmpd=signal in assay well, and min and max are the respective minimum and maximum signal controls.
(§6) Where top and bottom are the normally allowed to float, but may be fixed at 100 or 0 respectively in a 3-parameter fit. The Hill Coefficient normally allowed to float but may also be fixed at 1 in a 3-parameter fit. Y is the % inhibition and X is the compound concentration.

[2] = molecular target: T2, EZH2 Y641F mutant (PRC2 enzyme) (Homo sapiens, UniProt Q15910, Y641F); assay: PRC2 enzyme assay on peptide substrate, EZH2 Y641F mutant; assay type: biochemical; conditions: Y641F mutant PRC2 enzyme 4 nM, H3K27me2 peptide, 3H-SAM Flashplate
T2 construct: made in house; host or cells: Spodoptera frugiperda (sf9) cells, baculovirus
Excerpt: as §1, §2, §3, §4, §5, §6

[3] = test system: H3K27 trimethylation in WSU-DLCL2 cells; assay: WSU-DLCL2 Methylation Assay (H3K27me3 ELISA); assay type: cell-based; conditions: Homo sapiens, WSUDLCL2, 96 hours incubation, H3K27me3 normalised to total Histone H3
Excerpt: WSU-DLCL2 suspension cells were purchased from DSMZ (German Collection of Microorganisms and Cell Cultures, Braunschweig, Germany). RPMI/Glutamax Medium, Penicillin-Streptomycin, Heat Inactivated Fetal Bovine Serum, and D-PBS were purchased from Life Technologies, Grand Island, N.Y., USA. Extraction Buffer and Neutralization Buffer (5×) were purchased from Active Motif, Carlsbad, Calif., USA. Rabbit anti-Histone H3 antibody was purchased from Abcam, Cambridge, Mass., USA. Rabbit anti-H3K27me3 and HRP-conjugated anti-rabbit-IgG were purchased from Cell Signaling Technology, Danvers, Mass., USA. TMB “Super Sensitive” substrate was sourced from BioFX Laboratories, Owings Mills, Md., USA. IgG-free Bovine Serum Albumin was purchased from Jackson ImmunoResearch, West Grove, Pa., USA. PBS with Tween (10×PBST) was purchased from KPL, Gaithersburg, Md., USA. Sulfuric Acid was purchased from Ricca Chemical, Arlington, Tex., USA. Immulon ELISA plates were purchased from Thermo, Rochester, N.Y., USA. V-bottom cell culture plates were purchased from Corning Inc., Corning, N.Y., USA. V-bottom polypropylene plates were purchased from Greiner Bio-One, Monroe, N.C., USA.
(§7) WSU-DLCL2 suspension cells were maintained in growth medium (RPMI 1640 supplemented with 10% v/v heat inactivated fetal bovine serum and 100 units/mL penicillin-streptomycin) and cultured at 37° C. under 5% CO2 Under assay conditions, cells were incubated in Assay Medium (RPMI 1640 supplemented with 20% v/v heat inactivated fetal bovine serum and 100 units/mL penicillin-streptomycin) at 37° C. under 5% CO2 on a plate shaker.
WSU-DLCL2 cells were seeded in assay medium at a concentration of 50,000 cells per mL to a 96-well V-bottom cell culture plate with 200 μL per well. Compound (1 μL) from 96 well source plates was added directly to V-bottom cell plate. Plates were incubated on a titer-plate shaker at 37° C., 5% CO2 for 96 hours. After four days of incubation, plates were spun at 241×g for five minutes and medium was aspirated gently from each well of cell plate without disturbing cell pellet. Pellet was resuspended in 200 μL DPBS and plates were spun again at 241×g for five minutes. The supernatant was aspirated and cold (4° C.) Extraction buffer (100 μL) was added per well. Plates were incubated at 4° C. on orbital shaker for two hours. Plates were spun at 3427×g×10 minutes. Supernatant (80 μL per well) was transferred to its respective well in 96 well V-bottom polypropylene plate. Neutralization Buffer 5× (20 μL per well) was added to V-bottom polypropylene plate containing supernatant. V-bottom polypropylene plates containing crude histone preparation (CHP) were incubated on orbital shaker x five minutes. Crude Histone Preparations were added (2 μL per well) to each respective well into duplicate 96 well ELISA plates containing 100 μL Coating Buffer (1×PBS+BSA 0.05% w/v). Plates were sealed and incubated overnight at 4° C. The following day, plates were washed three times with 300 μL per well 1×PBST. Wells were blocked for two hours with 300 μL per well ELISA Diluent ((PBS (1×) BSA (2% w/v) and Tween20 (0.05% v/v)). Plates were washed three times with 1×PBST. For the Histone H3 detection plate, 100 μL per well were added of anti-Histone-H3 antibody (Abcam, ab1791) diluted 1:10,000 in ELISA Diluent. For H3K27 trimethylation detection plate, 100 μL per well were added of anti-H3K27me3 diluted 1:2000 in ELISA diluent. Plates were incubated for 90 minutes at room temperature. Plates were washed three times with 300 μL 1×PBST per well. For Histone H3 detection, 100 μL of HRP-conjugated anti-rabbit IgG antibody diluted to 1:6000 in ELISA diluent was added per well. For H3K27me3 detection, 100 μL of HRP conjugated anti-rabbit IgG antibody diluted to 1:4000 in ELISA diluent was added per well. Plates were incubated at room temperature for 90 minutes. Plates were washed four times with 1×PBST 300 μL per well. TMB substrate 100 μL was added per well. […]

WSU-DLCL2 cells = assay: Cell Proliferation Analysis, WSU-DLCL2; assay type: cell-based; conditions: Homo sapiens, WSUDLCL2, 144 h, 6 days, Cell Titer Glo
Excerpt: WSU-DLCL2 suspension cells were purchased from DSMZ (German Collection of Microorganisms and Cell Cultures, Braunschweig, Germany). RPMI/Glutamax Medium, Penicillin-Streptomycin, Heat Inactivated Fetal Bovine Serum were purchased from Life Technologies, Grand Island, N.Y., USA. V-bottom polypropylene 384-well plates were purchased from Greiner Bio-One, Monroe, N.C., USA. Cell culture 384-well white opaque plates were purchased from Perkin Elmer, Waltham, Mass., USA. Cell-Titer Glo® was purchased from Promega Corporation, Madison, Wis., USA. SpectraMax M5 plate reader was purchased from Molecular Devices LLC, Sunnyvale, Calif., USA.
as §7, with “and” for “and 100 units/mL penicillin-streptomycin) and”, “CO2.” for “CO2”, “CO2.” for “CO2 on a plate shaker.”
For the assessment of the effect of compounds on the proliferation of the WSU-DLCL2 cell line, exponentially growing cells were plated in 384-well white opaque plates at a density of 1250 cell/ml in a final volume of 50 μl of assay medium. A compound source plate was prepared by performing triplicate nine-point 3-fold serial dilutions in DMSO, beginning at 10 mM (final top concentration of compound in the assay was 20 μM and the DMSO was 0.2%). A 100 nL aliquot from the compound stock plate was added to its respective well in the cell plate. […] After addition of compounds, assay plates were incubated for 6 days at 37° C., 5% CO2, relative humidity >90% for 6 days. Cell viability was measured by quantization of ATP present in the cell cultures, adding 35 μl of Cell Titer Glo® reagent to the cell plates. Luminescence was read in the SpectraMax M5. The concentration inhibiting cell viability by 50% was determined using a 4-parametric fit of the normalized dose response curves.

T1 sequence (Q15910 whole entry): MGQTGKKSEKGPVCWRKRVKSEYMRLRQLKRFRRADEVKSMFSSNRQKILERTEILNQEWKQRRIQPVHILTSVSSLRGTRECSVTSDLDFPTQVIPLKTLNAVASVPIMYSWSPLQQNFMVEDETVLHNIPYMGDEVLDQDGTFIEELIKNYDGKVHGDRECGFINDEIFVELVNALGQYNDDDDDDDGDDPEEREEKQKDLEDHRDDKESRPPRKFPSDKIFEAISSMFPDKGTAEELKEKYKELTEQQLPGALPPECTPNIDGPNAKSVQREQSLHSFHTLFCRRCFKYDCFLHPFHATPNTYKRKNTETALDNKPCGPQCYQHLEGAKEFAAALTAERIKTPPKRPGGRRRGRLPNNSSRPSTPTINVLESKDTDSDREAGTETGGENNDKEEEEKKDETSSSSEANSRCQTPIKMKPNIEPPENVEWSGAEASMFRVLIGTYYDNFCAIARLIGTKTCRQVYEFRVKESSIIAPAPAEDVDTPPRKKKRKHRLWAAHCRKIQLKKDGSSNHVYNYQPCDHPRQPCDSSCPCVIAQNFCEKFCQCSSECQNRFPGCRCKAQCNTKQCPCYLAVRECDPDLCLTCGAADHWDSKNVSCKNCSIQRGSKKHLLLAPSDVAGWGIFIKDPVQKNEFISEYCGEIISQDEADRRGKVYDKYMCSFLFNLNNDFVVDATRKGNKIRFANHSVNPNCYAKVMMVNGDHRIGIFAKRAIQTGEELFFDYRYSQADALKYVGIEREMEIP
T1 sequence (O75530 whole entry partner): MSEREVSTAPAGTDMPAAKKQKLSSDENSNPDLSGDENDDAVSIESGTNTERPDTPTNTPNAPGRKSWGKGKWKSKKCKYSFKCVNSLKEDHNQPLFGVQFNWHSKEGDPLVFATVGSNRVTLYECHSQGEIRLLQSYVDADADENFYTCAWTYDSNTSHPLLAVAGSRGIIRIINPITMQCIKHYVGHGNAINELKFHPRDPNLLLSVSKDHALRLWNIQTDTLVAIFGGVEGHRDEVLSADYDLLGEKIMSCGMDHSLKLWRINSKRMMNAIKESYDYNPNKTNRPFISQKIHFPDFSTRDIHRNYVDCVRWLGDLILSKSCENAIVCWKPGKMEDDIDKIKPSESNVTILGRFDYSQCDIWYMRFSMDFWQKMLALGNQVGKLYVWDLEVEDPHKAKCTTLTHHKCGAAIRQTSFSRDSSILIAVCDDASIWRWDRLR
T1 sequence (Q15022 whole entry partner): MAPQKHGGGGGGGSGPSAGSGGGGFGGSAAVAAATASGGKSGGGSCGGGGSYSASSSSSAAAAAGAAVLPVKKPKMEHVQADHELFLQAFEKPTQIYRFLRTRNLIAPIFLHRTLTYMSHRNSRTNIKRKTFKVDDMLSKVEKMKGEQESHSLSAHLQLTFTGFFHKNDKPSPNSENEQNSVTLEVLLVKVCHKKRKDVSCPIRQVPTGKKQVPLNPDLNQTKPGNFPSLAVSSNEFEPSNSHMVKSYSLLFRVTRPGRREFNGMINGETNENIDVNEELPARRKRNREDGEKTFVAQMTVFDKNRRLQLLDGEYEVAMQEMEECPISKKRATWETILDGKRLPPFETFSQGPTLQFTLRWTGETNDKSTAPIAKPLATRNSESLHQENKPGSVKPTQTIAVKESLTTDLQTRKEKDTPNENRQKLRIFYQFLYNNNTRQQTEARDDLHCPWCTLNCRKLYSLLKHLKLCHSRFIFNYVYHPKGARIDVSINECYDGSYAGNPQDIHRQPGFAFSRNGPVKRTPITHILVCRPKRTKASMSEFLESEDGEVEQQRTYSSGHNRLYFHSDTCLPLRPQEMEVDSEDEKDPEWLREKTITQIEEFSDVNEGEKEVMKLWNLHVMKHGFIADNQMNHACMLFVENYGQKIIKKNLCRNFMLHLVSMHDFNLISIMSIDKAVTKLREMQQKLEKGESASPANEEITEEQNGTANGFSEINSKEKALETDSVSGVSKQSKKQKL
T1 sequence (Q09028 whole entry partner): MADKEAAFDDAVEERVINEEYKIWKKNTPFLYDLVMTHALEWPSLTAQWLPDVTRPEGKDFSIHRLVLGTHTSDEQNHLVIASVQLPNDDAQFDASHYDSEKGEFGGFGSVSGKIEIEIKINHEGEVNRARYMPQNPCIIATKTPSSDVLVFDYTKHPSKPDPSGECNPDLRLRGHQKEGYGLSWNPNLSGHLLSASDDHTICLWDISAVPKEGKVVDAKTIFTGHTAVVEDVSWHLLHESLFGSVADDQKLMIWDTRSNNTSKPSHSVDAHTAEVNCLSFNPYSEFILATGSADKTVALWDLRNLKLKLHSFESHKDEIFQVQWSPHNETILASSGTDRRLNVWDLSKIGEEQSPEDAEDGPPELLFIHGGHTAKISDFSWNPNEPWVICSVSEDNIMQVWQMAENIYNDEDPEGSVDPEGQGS
T2 sequence (Q15910 whole entry Y641F): as the sequence (Q15910 whole entry) above, with Y641F counted along it
T2 sequence (O75530 whole entry partner): as the sequence (O75530 whole entry partner) above
T2 sequence (Q15022 whole entry partner): as the sequence (Q15022 whole entry partner) above
T2 sequence (Q09028 whole entry partner): as the sequence (Q09028 whole entry partner) above

Structure (SMILES)	IC50 [1]	IC50 [2]	IC50 [3]	IC50 (WSU-DLCL2 cells)
CCN(c1cc(Cl)cc(C(=O)NCc2c(C)[nH]c(C)cc2=O)c1C)C1CCN(CCOC)CC1 [Compound 103]	360 nM	341 nM	41300 nM	
CCN(c1cc(-c2ccc(CN3CCOCC3)cc2)cc(C(=O)NCc2c(C)[nH]c(C)cc2=O)c1C)[C@H]1CC[C@H](N(C)C)CC1 [Compound 98]			3100 nM	4400 nM
CCN(c1cc(C#CC2(C)COC2)cc(C(=O)NCc2c(C)[nH]c(C)cc2=O)c1C)[C@H]1CC[C@H](N(C)C)CC1 [Compound 97]	5 nM	8 nM	9200 nM	
CCN(c1cc(-c2ccc(CN3CCOCC3)cc2)cc(C(=O)NCc2c(Cl)[nH]c(C)cc2=O)c1C)C1CCOCC1 [Compound 4, N-((2-chloro-6-methyl-4-oxo-1,4-dihydropyridin-3-yl)methyl)-5-(ethyl(tetrahydro-2H-pyran-4-yl)amino)-4-methyl-4′-(morpholinomethyl)-[1,1′-biphenyl]-3-carboxamide]			9070 nM	6720 nM
CCN(c1cc(Cl)cc(C(=O)NCc2c(C)[nH]c(C)cc2=O)c1C)[C@H]1CC[C@H](N(C)Cc2cccc(OC)c2)CC1 [Compound 99]	1 nM	5 nM	560 nM	
CCN(c1cc(C#CCN2CCOCC2)cc(C(=O)NCc2c(Cl)[nH]c(C)cc2=O)c1C)[C@H]1CC[C@H](N(C)C)CC1 [Compound 96]	130 nM	118 nM	4300 nM	
CCN(c1cc(C#CCN2CCOCC2)cc(C(=O)NCc2c(C)[nH]c(C)cc2=O)c1C)[C@H]1CC[C@H](N(C)C)CC1 [Compound 95]	17 nM	12 nM	11400 nM	
CCN(c1cc(Cl)cc(C(=O)NCc2c(Cl)[nH]c(C)cc2=O)c1C)[C@H]1CC[C@H](N(C)Cc2cccc(OC)c2)CC1 [Compound 101]	15 nM	10 nM	3000 nM	
CCN(c1cc(-c2ccc(CN3CCOCC3)cc2)cc(C(=O)NCc2c(C)[nH]c(C)cc2=O)c1C)C1CCOCC1 [Compound 2, N-((2,6-dimethyl-4-oxo-1,4-dihydropyridin-3-yl)methyl)-5-(ethyl(tetrahydro-2H-pyran-4-yl)amino)-4-methyl-4′-(morpholinomethyl)-[1,1′-biphenyl]-3-carboxamide]			8040 nM	19500 nM
CCN(c1cc(-c2ccc(OCCOC)cc2)cc(C(=O)NCc2c(Cl)[nH]c(C)cc2=O)c1C)[C@H]1CC[C@H](N(C)CCOC)CC1 [Compound 102]	150 nM	93 nM	10800 nM	
CCN(c1cc(Cl)cc(C(=O)NCc2c(Cl)[nH]c(C)cc2=O)c1C)C1CCN(CCOC)CC1 [Compound 104]	870 nM	598 nM	49500 nM	

Source: patent US20150344427A1 (EPIZYME, INC., priority 2012, published 2015)
